Results taken from US20220017877A1, “BILIRUBIN OXIDASE ACTIVITY IMPROVING METHOD, AND BILIRUBIN OXIDASE PRODUCT” (OZEKI CORPORATION, priority 2018, published 2022).
Like-named read-outs stand apart in the source and are kept apart here.

Target: T1, recombinant BOD (bilirubin oxidase) derived from Myrothecium verrucaria MT-1 (Albifimbria verrucaria, UniProt Q12737)
T1 construct: made in house; host or cells: Aspergillus sp
T1 sequence (Q12737 39-572): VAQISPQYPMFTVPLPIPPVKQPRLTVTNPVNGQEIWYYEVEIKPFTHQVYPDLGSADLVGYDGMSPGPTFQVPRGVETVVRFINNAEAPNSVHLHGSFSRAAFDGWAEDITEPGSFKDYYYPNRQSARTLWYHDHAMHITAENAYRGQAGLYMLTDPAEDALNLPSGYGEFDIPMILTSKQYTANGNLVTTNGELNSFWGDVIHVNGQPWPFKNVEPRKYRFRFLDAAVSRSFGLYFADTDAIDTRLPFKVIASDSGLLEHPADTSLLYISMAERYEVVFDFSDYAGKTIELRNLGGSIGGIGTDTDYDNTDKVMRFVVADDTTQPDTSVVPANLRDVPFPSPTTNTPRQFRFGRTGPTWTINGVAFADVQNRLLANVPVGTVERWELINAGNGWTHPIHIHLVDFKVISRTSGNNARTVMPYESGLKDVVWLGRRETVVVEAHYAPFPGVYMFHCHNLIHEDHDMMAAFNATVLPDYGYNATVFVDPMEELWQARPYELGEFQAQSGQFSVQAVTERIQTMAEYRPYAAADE
Experiment: BOD activity after leaving the BOD solution with an activity improving agent at 5 to 50° C. in a deoxygenated atmosphere (Test Example 2)
Format: biochemical
Conditions: for BOD activity increase at 5° C. compared with not lower than 10° C.: BOD containers left at 5° C.
From the text: In Test Example 1, a BOD gene derived from a Myrothecium verrucaria MT-1 (GenBank accession number: D12579.1) was introduced into an Aspergillus sp., and then a recombinant BOD (hereinafter, also referred to simply as “BOD”) expressed in the Aspergillus sp. was purified by using a well-known technique and then used as the BOD. The BOD gene derived from the Myrothecium verrucaria MT-1 was codon-optimized in accordance with a gene sequence of the Aspergillus sp., and then introduced into the Aspergillus sp. Further, the BOD thus purified was dissolved in a 50 mM glycine-KOH (pH 8.5) buffer so that the concentration of the BOD became 1.0 mg/mL. Then, a resultant solution was used as a BOD enzyme solution.
The enzymatic activity of the BOD was measured as follows. To 1780 μL of a 50 mM potassium phosphate buffer (pH 6.5), 200 μL of a 20 mM ABTS substrate solution was added, so that a mixed solution (1980 μL) was prepared. This mixed solution was incubated for 1 min at 37° C. Thereafter, 20 μL of a solution containing the BOD (specifically, a BOD solution for evaluation, which will be described later) was added to the mixed solution, and a resultant mixed solution (2 mL) was incubated at 37° C. While the mixed solution was incubated, the absorbance of the mixed solution at a wavelength of 436 nm was measured immediately after that addition of the BOD solution for evaluation (at 0 seconds) and thereafter every 20 seconds. On the basis of (i) the absorbance of the mixed solution at a wavelength of 436 nm immediately after the addition of the BOD solution for evaluation and (ii) the absorbance of the mixed solution at a wavelength of 436 nm after a lapse of 1 minute from the addition of the BOD solution for evaluation, calculation was carried out for obtaining an increase rate per minute of the absorbance of the mixed solution at a wavelength of 436 nm after the addition of the BOD solution for evaluation. The BOD activity (unit) in the BOD solution for evaluation was calculated from the increase rate. In the present specification, the amount of enzyme for oxidizing 1 μmol of ABTS per minute was defined as one unit.
The following describes a specific test method in Test Example 2. A BOD solution containing an activity improving agent was prepared as in Test Example 1. Further, another BOD solution which contained no activity improving agent (to which no activity improving agent was added) was prepared and used as a control. In Test Example 2, L-ascorbic acid or uric acid was used as the activity improving agent. Moreover, the final concentration of L-ascorbic acid in the BOD solution was set to 4 mM, and the final concentration of uric acid in the BOD solution was set to 20 mM. In addition, in Test Example 2, the concentration of the BOD in the BOD enzyme solution was set to 3.0 mg/mL.
Each of the above BOD solutions and a deoxygenating agent (Anaero Pack-Kenki manufactured by Mitsubishi Gas Chemical Company, Inc.) were included in one container (pouch) which was not permeable to oxygen. Then, the container was sealed, so that a BOD container was prepared. The BOD container was left at room temperature (approximately 25° C.) for approximately 2 hours, so that an inner atmosphere of the container became the deoxygenated atmosphere. Thereafter, the BOD container was left in a thermostatic chamber set at 5° C., 10° C., 20° C., 30° C., 40° C., or 50° C. for a certain period of time. Here, (a) the BOD solution without any additive was left for 1 day, 3 days, 7 days, 14 days, or 29 days, (b) the BOD solution containing L-ascorbic acid was left for 1 day, 3 days, 7 days, or 14 days, and (c) the BOD solution containing uric acid was left for 1 day, 3 days, 8 days, 14 days, or 28 days. Three samples (BOD containers) were prepared for each condition. After leaving the BOD containers under the above conditions, the BOD solution was collected from each of the BOD containers and used as a BOD solution for evaluation. […]

O=C1O[C@H]([C@@H](O)CO)C(O)=C1O [L-ascorbic acid]
activity at 4000 µM (4 mM, 5° C., Day 0, read-out: Activity (%) Day 0): 100% | activity at 4000 µM (4 mM, 5° C., Day 1, read-out: Activity (%) Day 1): 92% | activity at 4000 µM (4 mM, 5° C., Day 3, read-out: Activity (%) Day 3): 95% | activity at 4000 µM (4 mM, 5° C., Day 7, read-out: Activity (%) Day 7): 107% | activity at 4000 µM (4 mM, 5° C., Day 14, read-out: Activity (%) Day 14): 55% | activity at 4000 µM (4 mM, 10° C., Day 0, read-out: Activity (%) Day 0): 100% | activity at 4000 µM (4 mM, 10° C., Day 1, read-out: Activity (%) Day 1): 101% | activity at 4000 µM (4 mM, 10° C., Day 3, read-out: Activity (%) Day 3): 120% | activity at 4000 µM (4 mM, 10° C., Day 7, read-out: Activity (%) Day 7): 146% | activity at 4000 µM (4 mM, 10° C., Day 14, read-out: Activity (%) Day 14): 147% | activity at 4000 µM (4 mM, 20° C., Day 0, read-out: Activity (%) Day 0): 100% | activity at 4000 µM (4 mM, 20° C., Day 1, read-out: Activity (%) Day 1): 115% | activity at 4000 µM (4 mM, 20° C., Day 3, read-out: Activity (%) Day 3): 160% | activity at 4000 µM (4 mM, 20° C., Day 7, read-out: Activity (%) Day 7): 195% | activity at 4000 µM (4 mM, 20° C., Day 14, read-out: Activity (%) Day 14): 188% | activity at 4000 µM (4 mM, 30° C., Day 0, read-out: Activity (%) Day 0): 100% | activity at 4000 µM (4 mM, 30° C., Day 1, read-out: Activity (%) Day 1): 164% | activity at 4000 µM (4 mM, 30° C., Day 3, read-out: Activity (%) Day 3): 205% | activity at 4000 µM (4 mM, 30° C., Day 7, read-out: Activity (%) Day 7): 204% | activity at 4000 µM (4 mM, 30° C., Day 14, read-out: Activity (%) Day 14): 229% | activity at 4000 µM (4 mM, 40° C., Day 0, read-out: Activity (%) Day 0): 100% | activity at 4000 µM (4 mM, 40° C., Day 1, read-out: Activity (%) Day 1): 212% | activity at 4000 µM (4 mM, 40° C., Day 3, read-out: Activity (%) Day 3): 216% | activity at 4000 µM (4 mM, 40° C., Day 7, read-out: Activity (%) Day 7): 215% | activity at 4000 µM (4 mM, 40° C., Day 14, read-out: Activity (%) Day 14): 237% | activity at 4000 µM (4 mM, 50° C., Day 0, read-out: Activity (%) Day 0): 100% | activity at 4000 µM (4 mM, 50° C., Day 1, read-out: Activity (%) Day 1): 220% | activity at 4000 µM (4 mM, 50° C., Day 3, read-out: Activity (%) Day 3): 211% | activity at 4000 µM (4 mM, 50° C., Day 7, read-out: Activity (%) Day 7): 212% | activity at 4000 µM (4 mM, 50° C., Day 14, read-out: Activity (%) Day 14): 238% | increase of BOD activity as compared with that prior to leaving (4 mM, one day at not lower than 40° C.): ≥ 2 times | increase of BOD activity as compared with that prior to leaving (4 mM, seven days at 20° C.): ≥ 2 times | increase of BOD activity as compared with that prior to leaving (4 mM, three days at 30° C.): ≥ 2 times | BOD activity increase at 5° C. compared with not lower than 10° C.: not found to be increased to an extend that was achieved

O=c1[nH]c(=O)c2[nH]c(=O)[nH]c2[nH]1 [Uric acid, uric acid]
activity at 20000 µM (20 mM, 5° C., Day 0, read-out: Activity (%) Day 0): 100% | activity at 20000 µM (20 mM, 5° C., Day 1, read-out: Activity (%) Day 1): 116% | activity at 20000 µM (20 mM, 5° C., Day 3, read-out: Activity (%) Day 3): 113% | activity at 20000 µM (20 mM, 5° C., Day 8, read-out: Activity (%) Day 8): 140% | activity at 20000 µM (20 mM, 5° C., Day 14, read-out: Activity (%) Day 14): 137% | activity at 20000 µM (20 mM, 5° C., Day 28, read-out: Activity (%) Day 28): 144% | activity at 20000 µM (20 mM, 10° C., Day 0, read-out: Activity (%) Day 0): 100% | activity at 20000 µM (20 mM, 10° C., Day 1, read-out: Activity (%) Day 1): 123% | activity at 20000 µM (20 mM, 10° C., Day 3, read-out: Activity (%) Day 3): 123% | activity at 20000 µM (20 mM, 10° C., Day 8, read-out: Activity (%) Day 8): 159% | activity at 20000 µM (20 mM, 10° C., Day 14, read-out: Activity (%) Day 14): 144% | activity at 20000 µM (20 mM, 10° C., Day 28, read-out: Activity (%) Day 28): 169% | activity at 20000 µM (20 mM, 20° C., Day 0, read-out: Activity (%) Day 0): 100% | activity at 20000 µM (20 mM, 20° C., Day 1, read-out: Activity (%) Day 1): 134% | activity at 20000 µM (20 mM, 20° C., Day 3, read-out: Activity (%) Day 3): 137% | activity at 20000 µM (20 mM, 20° C., Day 8, read-out: Activity (%) Day 8): 179% | activity at 20000 µM (20 mM, 20° C., Day 14, read-out: Activity (%) Day 14): 173% | activity at 20000 µM (20 mM, 20° C., Day 28, read-out: Activity (%) Day 28): 206% | activity at 20000 µM (20 mM, 30° C., Day 0, read-out: Activity (%) Day 0): 100% | activity at 20000 µM (20 mM, 30° C., Day 1, read-out: Activity (%) Day 1): 144% | activity at 20000 µM (20 mM, 30° C., Day 3, read-out: Activity (%) Day 3): 181% | activity at 20000 µM (20 mM, 30° C., Day 8, read-out: Activity (%) Day 8): 202% | activity at 20000 µM (20 mM, 30° C., Day 14, read-out: Activity (%) Day 14): 212% | activity at 20000 µM (20 mM, 30° C., Day 28, read-out: Activity (%) Day 28): 215% | activity at 20000 µM (20 mM, 40° C., Day 0, read-out: Activity (%) Day 0): 100% | activity at 20000 µM (20 mM, 40° C., Day 1, read-out: Activity (%) Day 1): 176% | activity at 20000 µM (20 mM, 40° C., Day 3, read-out: Activity (%) Day 3): 206% | activity at 20000 µM (20 mM, 40° C., Day 8, read-out: Activity (%) Day 8): 216% | activity at 20000 µM (20 mM, 40° C., Day 14, read-out: Activity (%) Day 14): 194% | activity at 20000 µM (20 mM, 40° C., Day 28, read-out: Activity (%) Day 28): 217% | activity at 20000 µM (20 mM, 50° C., Day 0, read-out: Activity (%) Day 0): 100% | activity at 20000 µM (20 mM, 50° C., Day 1, read-out: Activity (%) Day 1): 210% | activity at 20000 µM (20 mM, 50° C., Day 3, read-out: Activity (%) Day 3): 196% | activity at 20000 µM (20 mM, 50° C., Day 8, read-out: Activity (%) Day 8): 175% | activity at 20000 µM (20 mM, 50° C., Day 14, read-out: Activity (%) Day 14): 195% | activity at 20000 µM (20 mM, 50° C., Day 28, read-out: Activity (%) Day 28): 174% | increase of BOD activity as compared with that prior to leaving (20 mM, eight days at 20° C.): approximately 1.8 times | increase of BOD activity as compared with that prior to leaving (20 mM, three days at 30° C.): approximately 1.8 times | BOD activity increase at 5° C. compared with not lower than 10° C.: not found to be increased to an extend that was achieved
